Patent publication US20260207624A1, “COADMINISTRATION OF ESTROGEN WITH ESTROGEN RECEPTOR MODULATOR OR DEGRADER OR ER TARGETED PROTAC FOR THE TREATMENT OF ESTROGEN RESPONSIVE CANCERS” (Duke University, priority 2022, published 2026)
“Also recorded” adds a separate entry of the source. Blank lines part the entries; values can stand above or below the compound they belong to.

What was measured:
BPD6 melanoma tumors = assay: BPD6 tumor growth in mice with ER ablated in macrophages (LysMCre+) or littermate controls; type: in vivo, mouse
Experimental: FIG. 5. TUMOR GROWTH IS REPRESSED WITH ESTROGEN AND A BRAIN-EXCLUDED SERD. FIG. 5 is a graph of tumor growth for BPD6 tumors with or without ER for the various indicated drug treatments. […] An analogous experiment to that presented in FIGS. 2A-2B and FIGS. 3A-3B was conducted in mice in which ER expression in macrophages was ablated using a promoter (LysM) to drive expression of the Cre enzyme to delete this receptor specifically in this cell type in mice having a floxed allele of ER. BPD6 melanoma tumors were implanted subcutaneously into Cre+ (ER ablated in macrophage) or littermate (LM, phenotypically wild type) mice that had been ovariectomized and then assigned to placebo or E2 treatment.
(§1) For all experiments, mice were ovariectomized under anesthesia at 7 weeks of age and were provided placebo or estrogen (2.72 mcg/mL) treatment in drinking water throughout the remainder of the experiment. 7 to 10 days after surgery 0.5×10^6 BPD6melanoma cells or E0771 (0.2×10^6) or A7C 11 (0.4×10^5) mammary cancer cells per mouse were injected subcutaneously (BPD6) or orthotopically (A7C11 or E0771) into the axial mammary gland. Tumor growth was monitored by caliper measurement at least 3× weekly and was calculated as L×W2×0.5. For those mice receiving treatment with SERDs, mice were randomized to treatment 2 days after tumor implantation. 3574 (camizestrant) and 3964 were administered PO QD (by mouth every day) formulated in 5% DMSO/20% hydroxypropyl-b-cyclodextrin. Fulvestrant was administered SC Q5D in 10% DMSO/95% corn oil.
It was previously determined that for some cancer subtypes, including melanoma, one mechanism by which estrogens modulate tumor growth is by promoting a pro-tumor anti-inflammatory M2-like phenotype in the tumor infiltrating macrophages. Using a genetic model employing Cre-Lox technology to specifically delete estrogen receptor in myeloid cells (including macrophages), it was previously determined that loss of estrogen receptor expression in this immune cell population results in the loss of estrogen modulation of tumor growth in these tumors. […] BOD6 tumors were implanted in ovariectomized ERflox/flox/LysMCre+ or ERflox/flox mice that received placebo or estradiol treatment. Mice were further randomized to receive vehicle or SERD 3574 (10 mg/kg po qd; by mouth every day). Average tumor volume +/−SEM was determined. Significance (p<0.05) was determined by 2-way ANOVA followed by Tukey's multiple comparison test.

E0771 mammary tumors = assay: E0771 mammary tumor growth in ovariectomized mice receiving placebo or E2; type: in vivo, mouse
Experimental: (§2) Prior to implantation into animals, BPD6, E0771, and A7C11 cells were cultured in DMEM media supplemented with 8% fetal bovine serum, non-essential amino acids and sodium pyruvate. Cells were trypsinized and injected in phosphate buffered saline.
as §1
(§3) At the conclusion of tumor measurement (approximately 2 weeks or when tumor reached 1.5-2 cm^3 volume), mice were euthanized by CO2 exposure followed by decapitation. Uteri were removed at necropsy and weighed as a measure of estrogen stimulation.
Analogous to the experiment in Example 4, E0771 mammary tumors were implanted in ovariectomized mice receiving E2 or placebo treatment.

uterus = assay: Uterine wet weight at necropsy as measure of estrogen stimulation; type: in vivo, mouse
Experimental: as §1, §3
(§4) To further explore the role of brain-expressed ER in tumor growth in the periphery, 2 SERDs were used with unique pharmacokinetics. […] ER-negative BPD6 melanoma cells were implanted into ovariectomized mice receiving either placebo or estradiol (E2) treatment in drinking water. After 48 hours, mice were randomized to receive vehicle (veh) or selective estrogen receptor degrader 3574 (10 mg/kg po qd; by mouth every day). Average tumor volume +/−SEM at each day of measurement was determined. Significance (p<0.05) was determined by 2-way ANOVA followed by Tukey's multiple comparison test. […] Treatment with anti-estrogens reversed this estradiol stimulation of tumor growth. E2 treated groups are included FIGS. 3A-3B.

BPD6 melanoma cells = assay: BPD6 melanoma tumor growth in ovariectomized mice receiving placebo or E2; type: in vivo, mouse; settings: BPD6 tumors
Experimental: as §2, §1, §3, §4
To further explore the relationship between brain exposure to SERDs and tumor response, a second melanoma experiment was conducted in which BPD6 tumors were implanted into ovariectomized mice receiving vehicle or estradiol treatment. These groups were further subdivided to receive vehicle or treatment with 25, 50, or 100 mg/kg fulvestrant.

A7C11 mammary tumors = assay: A7C11 mammary tumor growth in C57BL6 mice receiving placebo or estradiol; type: in vivo, mouse; settings: for effect on tumor growth, fulvestrant alone: mice lacking estrogen exposure
Experimental: FIGS. 11a-11b. […] 2 days later mice were subdivided to receive treatment with vehicle or fulvestrant (25, 50 or 100 mg/kg sc q5d). Average tumor volume throughout treatment (FIG. 11A) and uterine weight (FIG. 11B) at necropsy are presented. Placebo and E2+Veh groups in (FIG. 11A) are common between graphs to facilitate comparison. * p<0.05, 2-way (FIG. 11A) or 1-way (FIG. 11B) ANOVA followed by Tukey multiple comparison test. […]
as §2
as §1, with “[…]. […]” for “oil.”

[1] = Brain penetration of the SERDs (pharmacokinetics); settings: stated as a property of the SERD, no test described
[2] = Cre- littermate control (LM) mice of the brain-ERKO experiment, E2 in drinking water

SMILES: C[C@]12CC[C@@H]3c4ccc(O)cc4CC[C@H]3[C@@H]1CC[C@@H]2O [E2, 17β-estradiol]
effect of E2 on tumor growth (BPD6 melanoma tumors; Cre+ mice (ER ablated in macrophage)): without significant effect on tumor growth | tumor volume as compared to the placebo control (BPD6 melanoma tumors; Cre- LM control mice, E2 treatment): 2 fold | effect of E2 on tumor growth vs placebo treated control (E0771 mammary tumors; [2]): accelerated the growth of the tumors | tumor volume relative to placebo control (E0771 mammary tumors; E2 treatment alone (FIG. 4A)): approximately 2 fold | increase in uterine wet weight (uterus; estrogen treatment vs placebo, BPD6 tumor bearing ovariectomized mice (FIG. 2A)): ~10 fold | effect of E2 on tumor growth vs placebo treated control (BPD6 melanoma cells; [2]): accelerated the growth of the tumors | increase in tumor growth as compared to placebo/vehicle treatment (BPD6 melanoma cells; ovariectomized wild-type mice, agent alone (FIG. 2B)): 3 fold | effect of E2 on tumor growth vs placebo treated control (A7C11 mammary tumors; [2]): accelerated the growth of the tumors | effect on tumor growth (A7C11 mammary tumors; estradiol (2.72 mcg/mL drinking water) and vehicle co-administered): increase in A7C11 tumor growth

brain penetration [1]: brain excluded
SMILES: C[C@@H]1Cc2c(ccc3[nH]ncc23)[C@@H](c2ccc(NC3CN(CCCF)C3)cn2)N1CC(F)(F)F [compound 3574, camizestrant]
effect on tumor growth vs Cre+ mice receiving E2 alone (BPD6 melanoma tumors; Cre+ mice, 3574 10 mg/kg po qd and E2 together): significantly inhibited tumor growth | effect on growth of tumors, SERD alone (BPD6 melanoma tumors; placebo treated Cre+ mice, 3574 10 mg/kg po qd): did not affect the growth of tumors | effect on E2 stimulation of tumor growth (E0771 mammary tumors; E2-treated mice, 3574 (10 mg/kg)): reversed E2 stimulation of tumor growth | effect on E2 stimulation of the uterus (post-mortem uterine wet weight) (uterus; E0771 tumor bearing mice, all doses of the SERD): reversed E2 stimulation of the uterus | effect on E2 stimulation of uterine wet weight (uterus; SERD with E2, BPD6 tumor bearing ovariectomized mice): reversed E2 stimulation of uterine wet weight | effect on uterine weight, SERD alone (ER agonist activity) (uterus; placebo together with SERD, BPD6 tumor bearing ovariectomized mice): did not affect uterine weight | effect on E2 induced tumor growth (BPD6 melanoma cells; 3574 10 mg/kg po qd together with E2, 10 mg/kg): suppressed tumor growth below that observed in the placebo/vehicle treated control; also recorded: reversed E2 induced tumor growth, but in fact significantly repressed tumor growth as compared to placebo treatment alone | effect on tumor growth, SERD alone (BPD6 melanoma cells; placebo treated (no E2) mice, 3574 10 mg/kg po qd): without effect on tumor growth | effect on tumor growth, SERD alone (A7C11 mammary tumors; animals lacking estrogen exposure (FIGS. 12B-12D)): did not impact tumor growth | effect on tumor growth, SERD together with estrogen (A7C11 mammary tumors; estradiol treated mice (FIGS. 12B-12D)): further repressed tumor growth

SMILES: C[C@]12CC[C@@H]3c4ccc(O)cc4C[C@@H](CCCCCCCCC[S+]([O-])CCCC(F)(F)C(F)(F)F)[C@H]3[C@@H]1CC[C@@H]2O (stereo partly drawn) [fulvestrant]
effect on estrogen-dependent increases in uterine weight (uterus; A7C11 tumor bearing mice, fulvestrant 25, 50, or 100 mg/kg sc q5d): similarly repressed estrogen-dependent increases in uterine weight | effect on E2 stimulation of tumor growth (BPD6 melanoma cells; E2-treated mice, fulvestrant 25, 50, or 100 mg/kg): reversed E2 stimulation of tumor growth | effect on tumor growth, fulvestrant alone (BPD6 melanoma cells; placebo treated mice, fulvestrant 100 mg/kg): growth similar to that of the estrogen/vehicle control; also recorded: induced tumor growth itself | effect on estrogen induction of tumor growth (A7C11 mammary tumors; estradiol treated mice, 25, 50, or 100 mg/kg fulvestrant): similarly inhibited estrogen induction of A7C11 tumor growth | effect on tumor growth, fulvestrant alone (A7C11 mammary tumors; 25 mg/kg fulvestrant sc q5d): dose not affect A7C11 tumor growth | effect on tumor growth, fulvestrant alone (A7C11 mammary tumors; 50 or 100 mg/kg fulvestrant sc q5d): tumor growth comparable to that observed for the estrogen control group

SMILES: Oc1ccc2c(c1)CC[C@H](c1ccccc1)[C@@H]2c1ccc(OCCN2CCCC2)cc1 [lasofoxifene]
effect on tumor growth as compared to the placebo/vehicle control group (A7C11 mammary tumors; 3 mg/kg lasofoxifene po qd co-administered with estradiol): repression of tumor growth
